Assay results reported in a melting point compilation (Tetko et al.).

`O=C(O)C1CCN(C(=O)NC2CC2)CC1` gave a melting point of 123 to 125 °C.
`Nc1cccc(NC(=O)CCn2cccn2)c1` gave a melting point of 104 to 106 °C.
`Cc1ccc(SCC(=O)Nc2ccccc2C)c(N)c1` showed a melting point of 115 to 117 °C.
`Cc1nnc(-c2ccc(Br)c(F)c2)o1` gave a melting point of 138 to 140 °C.
`Cc1cn2c(=O)c(C(=O)O)cnc2s1` showed a melting point of 239 to 241 °C.
For `COC(=O)c1ccc(S(=O)(=O)Cl)c(Br)c1`, the melting point was 82 to 84 °C.
`COC(=O)c1sc(-c2ccccc2Cl)cc1N` showed a melting point of 109 to 111 °C.
With `NC(=O)C=Cc1cccnc1` the melting point was 149 to 151 °C.
`COC(=O)c1ccc(F)c(N)c1` showed a melting point of 67 to 69 °C.
`Cc1cc(Br)cn2c3c(nc12)CCNC3` gave a melting point of 165 to 167 °C.
In the case of `O=C(O)c1cn(Cc2ccccc2)nn1`, the melting point is reported as 176 to 178 °C.
Work on `Cn1ccc(C(=O)c2ccc(F)cc2)n1` yielded a melting point of 68 to 70 °C.
With `N#CCc1cc(Br)cnc1O` the melting point was 209 to 211 °C.
Work on `Cc1cc(N)nc(Cl)n1` yielded a melting point of 220 to 222 °C.
Work on `Cc1nc(N)sc1-c1ccccc1` yielded a melting point of 163 to 165 °C.
`O=C1CSC(NC2CCCC2)=N1` showed a melting point of 110 to 112 °C.
Work on `COC(=O)c1ccc(CCC(=O)O)cc1` yielded a melting point of 113 to 115 °C.
For `CCOC(=O)c1ccc(N2CCNCC2)nc1`, the melting point was 49 to 51 °C.
For `CC(C)(C)OC(=O)N1CCC(OCC(F)(F)F)(C(=O)O)CC1`, the melting point was 259 to 261 °C.
With `O=C(O)c1nn(-c2ccc(F)cc2)c2c1CCCCC2` the melting point was 167 to 169 °C.
Compound `Cc1csc(NC(=O)C2CCNCC2)n1` has a melting point of 189 to 191 °C.
For `O=C(O)c1ccc2c(c1)C(=O)N(CC1CCCO1)C2=O` (stereo not drawn), the melting point was 153 to 155 °C.
With `Cc1cccc(Oc2ccc(Cl)cc2N)c1` the melting point was 93 to 97 °C.
`CC(Oc1ccc(-c2nc3ccccc3s2)cc1)C(=O)O` (stereo not drawn) gave a melting point of 217 to 219 °C.
`Cc1cc(NN)ncn1` showed a melting point of 99 to 101 °C.
`Cc1nc2c(C#N)cnn2c(O)c1CC(=O)O` showed a melting point of 275 to 277 °C.
`CC(O)c1c(Cl)nc2sccn12` (stereo not drawn) gave a melting point of 107 to 109 °C.
In the case of `Nc1ccnn1-c1ccc(C(F)(F)F)cn1`, the melting point is reported as 89 to 91 °C.
With `O=C(O)C1CCN(C(=O)NCc2ccco2)CC1` the melting point was 138 to 140 °C.
`OCC(c1ccc(Cl)cc1)N1CCNCC1` (stereo not drawn) gave a melting point of 116 to 118 °C.
`Cc1sc2nc(CN3CCCCC3)nc(Cl)c2c1C` gave a melting point of 61 to 63 °C.
For `O=C(c1cc(Br)c(S(=O)(=O)Cl)[nH]1)C(Cl)(Cl)Cl`, the melting point was 144 to 146 °C.
With `CC(C)C(=O)Nc1cccc(O)c1` the melting point was 179 to 181 °C.
`COc1ccc(-c2nn(CCC#N)cc2C(=O)O)cc1[N+](=O)[O-]` showed a melting point of 190 to 192 °C.
Compound `O=S(=O)(Cl)c1cnc2ccsc2c1` has a melting point of 129 to 131 °C.
Work on `N#CCC(=O)c1ccc(Br)s1` yielded a melting point of 143 to 145 °C.
In the case of `CC(C)(C)c1ccc(CC(C#N)C(N)=O)cc1` (stereo not drawn), the melting point is reported as 143 to 145 °C.
For `Nc1cccc(-c2nnco2)c1`, the melting point was 66 to 68 °C.
`COC(=O)N(C)c1ccccc1C(=O)O` showed a melting point of 138 to 140 °C.
`O=C(O)C1CCCc2sccc21` (stereo not drawn) showed a melting point of 79 to 81 °C.
Work on `CN(C)C(=O)COc1cccc(N)c1` yielded a melting point of 100 to 102 °C.
For `CCCC(=O)c1cccc([N+](=O)[O-])c1`, the melting point was 59 to 63 °C.
In the case of `N#Cc1cnccc1N`, the melting point is reported as 170 to 172 °C.
For `CC(C)(C)OC(=O)N1CCc2ccccc21`, the melting point was 46 to 50 °C.
Compound `COc1ccc(C=O)cc1OCC(C)C` has a melting point of 40 to 42 °C.
`CCOc1ccc(C2(C(=O)O)CC2)cc1` showed a melting point of 118 to 120 °C.
In the case of `NC(=O)NCc1ccncc1`, the melting point is reported as 198 to 200 °C.
Work on `Cc1cc(C)nc(C#N)c1` yielded a melting point of 43 to 45 °C.
Work on `CCOc1cccc2c1OCC(C(=O)O)=C2` yielded a melting point of 219 to 221 °C.
For `CNC(=O)c1cc([N+](=O)[O-])ccc1F`, the melting point was 142 to 144 °C.
Work on `Cn1c(=O)[nH]c(=O)c2cc(S(=O)(=O)Cl)cnc21` yielded a melting point of 214 to 216 °C.
`NCc1nc(-c2ccsc2)no1` showed a melting point of 134 to 136 °C.
In the case of `CN(C)S(=O)(=O)c1ccc(/C=C/C(=O)O)cc1`, the melting point is reported as 268 to 270 °C.
Work on `CCNS(=O)(=O)c1cccc(C(=O)O)c1` yielded a melting point of 199 to 201 °C.
For `NC(=S)Cc1ccc(Br)cc1`, the melting point was 146 to 148 °C.
`O=c1[nH]c(CCl)nc2cc(C(F)(F)F)ccc12` showed a melting point of 209 to 211 °C.
`O=C(O)c1ccc(Cl)c(S(=O)(=O)N2CCCC2)c1` gave a melting point of 239 to 241 °C.
Compound `CS(=O)c1nnc[nH]1` (stereo not drawn) has a melting point of 119 to 121 °C.
`CC(Cc1cccc(F)c1)(C(=O)O)C(=O)O` gave a melting point of 150 to 152 °C.
For `CC(C)C(Br)C(=O)N(C)C1CCCCC1` (stereo not drawn), the melting point was 72 to 74 °C.
For `NC(=O)C1CCN(Cc2cccc(N)c2)CC1`, the melting point was 139 to 141 °C.
With `O=C1CNC(=O)N1CCCl` the melting point was 114 to 116 °C.
Compound `O=C(O)C1(c2cccc(Cl)c2)CC1` has a melting point of 135 to 137 °C.
`Cc1cc(C)c2c(N)c(C(=O)O)sc2n1` showed a melting point of 145 to 147 °C.
Compound `O=C(O)c1cccc(NC(=O)c2cccc(Br)c2)c1` has a melting point of 273 to 275 °C.
With `CN(C)C(=O)COc1ccccc1C(=O)O` the melting point was 127 to 129 °C.
`O=C(Cc1ccccc1Cl)NCCCO` showed a melting point of 77 to 79 °C.
For `Cc1cc(Cl)cc([N+](=O)[O-])c1I`, the melting point was 73 to 75 °C.
Compound `O=C(O)C1CSC2(c3ccccc3)CCC(=O)N12` (stereo not drawn) has a melting point of 173 to 175 °C.
Compound `O=C(O)c1cc2ccccc2cc1NC(=O)C1CC1` has a melting point of 235 to 237 °C.
`COCCOc1ccc(Cl)cc1S(=O)(=O)Cl` gave a melting point of 38 to 40 °C.
Compound `COC(=O)C(=O)CC(=O)c1ccc(Cl)cc1Cl` has a melting point of 118 to 120 °C.
With `O=C1CCC(O)(c2cccc(F)c2)CC1` the melting point was 111 to 113 °C.
